The results in this text go back to US9610365B2, “Anthracenyl-tetralactam macrocycles and their use in detecting a target saccharide” (UNIVERSITY OF BRISTOL, priority 2012, dated 2017).

Some results are limits rather than exact numbers.

A short description of data set [1]: Isothermal titration calorimetry (ITC). The format is binding. The following applies: ITC titration in water at 298 K. The procedure: (§1) Experiments were performed on a VP-ITC™ (Microcal, Inc., Northampton, Mass.) at 298 K. Stock solutions of carbohydrates were made up in pure HPLC grade water and allowed to equilibrate overnight. Receptor solutions were made up in pure water. All the solutions were degassed and thermostated using the ThermoVac™ accessory before titration. The sample cell volume was 1.4226 mL. Each titration experiment included 25-35 successive injections.
(In general: In ITC the heat of successive injections is recorded.)

A short description of the next data set: Fluorescence titration. The format is binding. The following applies: for Ka: fluorescence titration in phosphate buffer solution (pH 7.1, 0.1 M) at 298 K. The procedure: (§2) Fluorescence titrations were carried out at 298 K on a PerkinElmer™ LS45 spectrometer in PBS (phosphate buffered saline) buffer solution (pH 7.1, 100 mM). The carbohydrate stock solutions were prepared by dissolving the carbohydrates in buffer containing the receptor at the concentration to be used in the titration (thus avoiding dilution of the receptor during the experiment). The solutions were kept overnight at room temperature before the titration experiments, in order to ensure equilibration of anomers. The wavelength to be used for fluorescence excitation was determined by measurement of the UV-visible spectrum of receptor 3 in the presence of carbohydrates. 394 nm was chosen, because at this wavelength the absorption of receptor was almost independent of carbohydrate concentration. In a typical titration, aliquots of carbohydrate-receptor solution were added to receptor solution (2.5 mL) in a quartz cuvette (3 mL, 10 mm pathway). The solution was stirred for 2 minutes and left to stand for another 1 minute before the emission spectrum was recorded. Binding constants were calculated using non-linear curve fitting assuming 1:1 binding stoichiometry, employing both Kaleidagraph™ and a customised Excel™ spreadsheet. Errors were estimated at <5%.

A short description of data set [2]: 1H NMR titration, binding to carbohydrate substrate. The conditions noted are these: 1H NMR titration in D2O at 298 K. The protocol:
(§3) The binding of receptor compound 3 to carbohydrate substrates, in aqueous solution, was studied initially by ^1H NMR titrations at 298 K. The saccharides used as test substrates are shown in FIG. 7.
(§4) Titrations were performed on a Varian™ 500 MHz spectrometer. Solutions of reducing carbohydrates were prepared in D2O and kept overnight at room temperature before the titration experiments, in order to ensure equilibration of anomers. In a typical titration, aliquots of carbohydrate solution were added to receptor solution (DSS as internal standard) and the ^1H NMR spectra were recorded. Variations in chemical shifts were entered into a specifically written non-linear least squares curve-fitting program implemented within Excel™. Assuming 1:1 stoichiometry, the program calculates Ka and the limiting change in chemical shift Δδ. The assumption is supported by the generally good fits between observed and calculated data.

Assay in data set [3]: as above
The conditions noted are these: 1H NMR titration in D2O at 298 K. The procedure: as §3, §4
This is another data set of the same source.

Assay in data set [4]: as above
The conditions noted are these: 1H NMR titration in D2O at 298 K. The procedure:
as §3, §4
The source holds these as a separate data set.

Assay in data set [5]: as above
The conditions noted are these: 1H NMR titration in D2O at 298 K. The procedure: as §3, §4
This is another data set of the same source.

Assay in data set [6]: as above
The following applies: 1H NMR titration in D2O at 298 K. The procedure:
as §3, §4
This is another data set of the same source.

The nature of data set [7]: Isothermal titration calorimetry (ITC). In kind it is binding. The protocol: as §1
A short description of data set [8]: 1H NMR titration, binding to carbohydrate substrate. The conditions noted are these: 1H NMR titration in D2O at 298 K. The procedure:
as §3, §4
This is another data set of the same source.

Data set [9] can be described thus: Fluorescence emission properties of the receptor. In kind it is physicochemical. The procedure: as §2, with “The solution was stirred for 2 minutes and left to stand for another 1 minute before the emission spectrum was recorded. Binding constants were calculated using non-linear curve fitting assuming 1:1 binding stoichiometry, employing both Kaleidagraph™ and a customised Excel™ spreadsheet. Errors were estimated at <5%.” left out
It can be seen that on excitation with UV light at 394 nm, 3 emitted in the blue-violet region, peaking at 423 nm, with a quantum yield of 2.4% (20 μm aqueous solution). […] Binding constants obtained by this method were in good agreement with those measured by NMR titrations (see Table 1). Moreover these fluorescence characteristics are promising for practical glucose sensing, especially when compared to biphenyl-based synthetic lectins. […]

Data set [10] in a line: 1H NMR titration, binding to carbohydrate substrate. The conditions noted are these: 1H NMR titration in D2O at 298 K. The protocol: as §3, §4
This is another data set of the same source.

Assay in data set [11]: as above
The conditions noted are these: 1H NMR titration in D2O at 298 K; ~0 = too small for analysis. The procedure:
as §3, §4

Assay in data set [12]: as above
The conditions noted are these: 1H NMR titration in D2O at 298 K; ~0 = too small for analysis. The procedure:
as §3, §4
This is another data set of the same source.

Assay in data set [13]: as above
The conditions noted are these: 1H NMR titration in D2O at 298 K. The protocol:
as §3, §4
This is another data set of the same source.

Assay in data set [14]: as above
The conditions noted are these: 1H NMR titration in D2O at 298 K; ~0 = too small for analysis. The procedure: as §3, §4
The source holds these as a separate data set.

Assay in data set [15]: as above
The conditions noted are these: for Ka: 1H NMR titration in D2O at 298 K. The procedure:
as §3, §4

Assay in data set [16]: as above
The conditions noted are these: 1H NMR titration in D2O at 298 K. The protocol:
as §3, §4
This is another data set of the same source.

Data set [17] in a line: Solubility and aggregation in water/D2O (NMR dilution studies). The format is physicochemical. The procedure: The compound was dissolved in D2O at concentrations up to ˜4 mM giving clean, if slightly broadened, ^1H NMR spectra. Minor signal movements were observed on dilution to ˜1 mM but no further effect was observed below this concentration, implying that the system is monomeric at 1 mM or less.

Data set [18] is described as follows: 1H NMR titration, binding to carbohydrate substrate. The conditions noted are these: 1H NMR titration in D2O at 298 K; ~0 = too small for analysis. The protocol:
as §3, §4
The source holds these as a separate data set.

The nature of data set [19]: Photobleaching under continuous UV irradiation in a fluorescence spectrometer. The format is physicochemical. The conditions noted are these: in 5 hours. The protocol:
Under continuous UV irradiation in a fluorescence spectrometer, emission decayed by <10% in 5 hours. In a practical glucose monitoring device this would translate to a long lifetime as the receptor compound would be subjected only to short pulses of light every few seconds.

A short description of data set [20]: 1H NMR titration, binding to carbohydrate substrate. The conditions noted are these: 1H NMR titration in D2O at 298 K. The protocol: as §3, §4
This is another data set of the same source.

Data set [21] is described as follows: 1H NMR titration, summary for non-target monosaccharides. In kind it is binding. The following applies: all non-target monosaccharides aside from methyl α-D-glucoside. The protocol: as §3, §4
Data set [22] can be described thus: 1H NMR titration, binding to carbohydrate substrate. The conditions noted are these: 1H NMR titration in D2O at 298 K. The protocol:
as §3, §4
This is another data set of the same source.

Assay in data set [23]: as above
The following applies: 1H NMR titration in D2O at 298 K; ~0 = too small for analysis. The protocol:
as §3, §4
This is another data set of the same source.

Assay in data set [24]: as above
The procedure:
as §3, §4

Assay in data set [25]: as above
The following applies: 1H NMR titration in D2O at 298 K; ~0 = too small for analysis. The protocol:
as §3, §4
The source holds these as a separate data set.

Assay in data set [26]: as above
The following applies: 1H NMR titration in D2O at 298 K; ~0 = too small for analysis. The procedure:
as §3, §4
The source holds these as a separate data set.

Assay in data set [27]: as above
The conditions noted are these: 1H NMR titration in D2O at 298 K. The procedure: as §3, §4
This is another data set of the same source.

Assay in data set [28]: as above
The following applies: 1H NMR titration in D2O at 298 K. The procedure:
as §3, §4
The source holds these as a separate data set.

[29] abbreviates: 1H NMR titration, 1.1 mM receptor, glucose 0 to 200 mM, 298 K.
Setting [30] is: 0.125 mM to 2 mM in D2O at 298 K.

As for `O=C(O)CCOCC(COCCC(=O)O)(COCCC(=O)O)NC(=O)c1cc2cc(c1)C(=O)NCc1c3ccccc3c(c3ccccc13)CNC(=O)c1cc(cc(C(=O)NC(COCCC(=O)O)(COCCC(=O)O)COCCC(=O)O)c1)C(=O)NCc1c3ccccc3c(c3ccccc13)CNC2=O` [Compound 3], the Ka in [1] stood at 101 M⁻¹; in “Fluorescence titration” (binding data at 423 nm), 58 M⁻¹; in “Fluorescence titration” (with D -lactose), 9 M⁻¹; in the data set “Fluorescence titration” (with methyl β-D-glucoside 10), 121 M⁻¹; in data set [2] it was 6 M⁻¹; in data set [3] it was 96 M⁻¹. The Ka in [4] turned out to be 1 M⁻¹; in data set [5], 9 M⁻¹; in [6] it was 24 M⁻¹; in data set [7] (ITC titration in water at 298 K), 55 M⁻¹; in [8], 1 M⁻¹; in data set [10] it was 28 M⁻¹. Besides, the Ka in data set [11] is approximately 0 M⁻¹; in data set [12] it was approximately 0 M⁻¹; in data set [13], 1 M⁻¹; in data set [14] it was approximately 0 M⁻¹; in [15] it was 56 M⁻¹; in data set [15] (~0 = too small for analysis), approximately 0 M⁻¹. Moreover, the Ka was 87 M⁻¹ in data set [16]; approximately 0 M⁻¹ in data set [18]; 36 M⁻¹ in data set [20]; not above 1 m^−1 in data set [21]; 35 M⁻¹ in [22]; approximately 0 M⁻¹ in [23]. Moreover, the Ka in data set [24] (1H NMR titration in D2O at 298 K, ~0 = too small for analysis) was approximately 0 M⁻¹; in [25], approximately 0 M⁻¹; in [26] it was approximately 0 M⁻¹; in data set [27] it was 16 M⁻¹; in [28], 10 M⁻¹. Moreover, the “increase of emission intensity on addition of glucose (factor)” value in the data set “Fluorescence titration” (receptor 18.8 μM, excitation 394 nm) was “up to 2.5”. This compound also had a TΔS of binding in [7] (ITC, 298 K, water) of -1.4 kcal/mol. The ΔH of binding in data set [7] (ITC, 298 K, water) was -3.8 kcal/mol. This compound also had a quantum yield in data set [9] (20 μm aqueous solution, excitation 394 nm) of 2.4%. The compound also yielded an emission peak in data set [9] (excitation with UV light at 394 nm) of 423 nm. Further, the “association constant Ka from movement of proton E” value in [15] (setting [29]) was 58 M⁻¹. In addition, in [15] (setting [29]), the “association constant Ka from movement of proton F” value is 54 M⁻¹. Besides, the receptor occupancy in data set [15] (310 K, across the physiological range of 2-10 mM glucose) is listed as 6-25%. Also, the “response when added to receptor” value in [15] (lactate) and in data set [24] (mannitol) was “Neither produced any response” throughout. In [15] (physiological temperature (310 K)), the “affinity measured by NMR titration” value came out at 33 M⁻¹. The “concentration at which system is monomeric” value in [17] (D2O, NMR dilution) is not above 1000 µM. Moreover, the “concentration dissolved in D2O” value in data set [17] (giving clean 1H NMR spectra) is approximately 4000 µM. In [19], the “emission decay (photobleaching)” value is given as less than 10%.

On to `O=C([O-])CCOCC(COCCC(=O)[O-])(COCCC(=O)[O-])NC(=O)c1cc2cc(c1)C(=O)NCc1c3ccccc3c(c3ccccc13)CNC(=O)c1cc(cc(C(=O)NC(COCCC(=O)[O-])(COCCC(=O)[O-])COCCC(=O)[O-])c1)C(=O)NCc1ccc(cc1)CNC2=O.[Na+].[Na+].[Na+].[Na+].[Na+].[Na+]` [Compound 9], for which the Ka result in data set [5] and in [15] was “too small to measure” in each case.

As to `O=C([O-])CCC(CCC(=O)[O-])(CCC(=O)[O-])NC(=O)CCC(CCC(=O)NC(CCC(=O)[O-])(CCC(=O)[O-])CCC(=O)[O-])(CCC(=O)NC(CCC(=O)[O-])(CCC(=O)[O-])CCC(=O)[O-])NC(=O)c1cc2cc(c1)C(=O)NCc1c3ccccc3c(c3ccccc13)CNC(=O)c1cc(cc(C(=O)NC(CCC(=O)NC(CCC(=O)[O-])(CCC(=O)[O-])CCC(=O)[O-])(CCC(=O)NC(CCC(=O)[O-])(CCC(=O)[O-])CCC(=O)[O-])CCC(=O)NC(CCC(=O)[O-])(CCC(=O)[O-])CCC(=O)[O-])c1)C(=O)NCc1c3ccccc3c(c3ccccc13)CNC2=O.[Na+].[Na+].[Na+].[Na+].[Na+].[Na+].[Na+].[Na+].[Na+].[Na+].[Na+].[Na+].[Na+].[Na+].[Na+].[Na+].[Na+].[Na+]` [Compound 13], the “increase in fluorescence emission upon binding with D-glucose” value in “Fluorescence titration” (em 423 nm, ex 395 nm, 18.8 μM, phosphate buffer pH 7.1) is “approximately three-fold”. In “Fluorescence titration” (binding data at 423 nm), this compound yielded a Ka of 87 M⁻¹. Also, in data set [15], the Ka stood at 89 M⁻¹. For the same compound, in data set [17] (setting [30]), the “aggregation during NMR dilution studies” value is recorded as “no indication of aggregation” and the solubility in water result is given as “good solubility in water”.
